# Like-named read-outs stand apart in the source and are kept apart here.
# Legend:
# [1] = test system: α-glucosidase I from rat liver microsomes; settings: cited from earlier work
# [2] = test system: α-glucosidase I from bovine mammary gland; settings: cited from earlier work
# [3] = test system: α-glucosidase I from yeast microsomal preparation; settings: cited from earlier work
# [4] = test system: α-glucosidase I from mung bean seedlings; settings: cited from earlier work
# α-glucosidase = settings: cited from earlier work
# glucosidase I = target: T1, glucosidase I (Bos taurus, UniProt A0A3Q1M9D9); assay: Assay for glucosidase I activity (14C-Glc3Man9GlcNAc2 substrate, ConA-Sepharose, scintillation counting); format: biochemical, calf; settings: 1 mM concentration
# T1 construct: Glucosidase I was solubilized from calf pancreas microsomes; from tissue; host or cells: calf pancreas microsomes
# T1 sequence (A0A3Q1M9D9 1-839): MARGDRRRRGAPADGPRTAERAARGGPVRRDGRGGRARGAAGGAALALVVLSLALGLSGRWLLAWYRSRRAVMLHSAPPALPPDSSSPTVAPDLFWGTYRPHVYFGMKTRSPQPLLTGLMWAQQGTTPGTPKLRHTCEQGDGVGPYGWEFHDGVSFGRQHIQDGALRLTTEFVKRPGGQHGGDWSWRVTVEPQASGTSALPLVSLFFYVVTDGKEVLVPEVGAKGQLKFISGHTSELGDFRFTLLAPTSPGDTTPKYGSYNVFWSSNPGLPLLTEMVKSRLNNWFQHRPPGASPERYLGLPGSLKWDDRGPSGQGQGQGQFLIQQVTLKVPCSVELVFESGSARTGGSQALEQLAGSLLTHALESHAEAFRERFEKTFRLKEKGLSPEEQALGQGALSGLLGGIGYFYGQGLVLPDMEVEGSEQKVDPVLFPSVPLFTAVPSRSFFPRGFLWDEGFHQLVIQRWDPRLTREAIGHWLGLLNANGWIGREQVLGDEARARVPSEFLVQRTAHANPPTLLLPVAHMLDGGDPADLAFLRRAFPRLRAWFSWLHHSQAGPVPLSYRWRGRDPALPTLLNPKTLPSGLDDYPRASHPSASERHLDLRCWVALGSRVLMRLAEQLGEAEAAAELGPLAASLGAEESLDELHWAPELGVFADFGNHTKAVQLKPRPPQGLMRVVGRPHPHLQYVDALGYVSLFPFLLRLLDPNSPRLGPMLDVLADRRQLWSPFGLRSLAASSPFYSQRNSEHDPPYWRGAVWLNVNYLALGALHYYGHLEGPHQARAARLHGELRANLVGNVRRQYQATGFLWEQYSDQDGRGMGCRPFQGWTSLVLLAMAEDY
# Experimental: Some of the compounds described herein were evaluated as inhibitors of glucosidase I activity. Glucosidase I was purified by a literature procedure as follows. To prepare an affinity matrix, carboxypentyl-deoxynojirimycin was coupled with Affigel 102 according to Shailubhai et al^51. Glucosidase I was solubilized from calf pancreas microsomes, and purified from glucosidase II activity by affinity chromatography according to the same authors.
# Substrates for Assay of Glucosidase I ^14 C-labelled Glc3 Man9 GlcNAc2 -PP-Dol was prepared by the incubation of UDP-[^14 C]Glc with calf pancreas microsomes as described by Herscovien et al^52. Glc3 Man9 GlcNAc2 was released by mild acid hydrolysis and purified by BioGel P4 chromatography.
# Assay for Glucosidase I Activity
# Affinity purified glucosidase I was assayed as described by Saunier et al.^53 by adsorption of undigested substrate […] to ConA-Sepharose and scintillation counting of [^14 C]Glc in the column eluent. Oligosaccharides as potential inhibitors were evaluated using castanospermine as a baseline inhibitor.
# [5] = affinity purified glucosidase I from calf pancreas microsomes, read-out: inhibition of glucosidase I activity
compound,measurement,setting,value
OC[C@H]1O[C@H](O[C@H]2C(O)O[C@H](CO)[C@@H](O)[C@@H]2O)[C@H](O)[C@@H](O)[C@@H]1O (stereo partly drawn) [Kojibiose],inhibition of α-glucosidase I,[1],inhibited
same,inhibition of α-glucosidase I,[2],inhibited
same,inhibition of α-glucosidase I,[3],inhibited
same,inhibition of α-glucosidase I,[4],inhibited
C[C@H]1O[C@H](O[C@H]2[C@H](O)[C@@H](O)[C@@H](O[C@H]3[C@H](O)[C@@H](O)C(O)O[C@@H]3CO)O[C@@H]2CO)[C@H](O)[C@@H](O)[C@@H]1N[C@H]1C=C(CO)[C@@H](O)[C@H](O)[C@H]1O (stereo partly drawn) [acarbose],α-glucosidase inhibition,α-glucosidase,potent
"COC(=O)CCCCCCCCO[C@H]1O[C@H](CO)[C@@H](O)[C@H](O)[C@H]1O[C@H]1O[C@H](CO)[C@@H](O)[C@H](O)[C@H]1O [compound 44, 8-Methoxycarbonyloctyl 2-O-(α-D-glucopyranosyl)-α-D-glucopyranoside]",inhibition at 1000 µM,glucosidase I; [5],20%
"COC(=O)CCCCCCCCO[C@H]1O[C@H](CN)[C@@H](O)[C@H](O)[C@H]1O[C@H]1O[C@H](CO)[C@@H](O)[C@H](O)[C@H]1O [compound 57, 8-Methoxycarbonyloctyl 6-amino-6-deoxy-2-O-(α-D-glucopyranosyl)-α-D-glucopyranoside]",inhibition at 1000 µM,"glucosidase I; versus known compound 44, read-out: increase in inhibition activity relative to compound 44",70%
same,inhibition at 1000 µM,glucosidase I; [5],34%
C[C@H]1O[C@H](O[C@H]2[C@H](O)[C@@H](O)[C@@H](O[C@H]3[C@H](O)[C@@H](O)[C@@H](O)O[C@@H]3CO)O[C@@H]2CO)[C@H](O)[C@@H](O)[C@@H]1N[C@H]1C[C@H](CO)[C@@H](O)[C@H](O)[C@H]1O [dihydroacarbose],α-glucosidase inhibition,α-glucosidase,potent

# Reference: patent US5633233A, “Modified kojibiosides analogues” (priority 1995, dated 1997)
